This passage reports IC50 and melting point results from patent US8486977B2, “1,2,3-triazole derivatives for use as stearoyl-CoA desaturase inhibitors” (GlaxoSmithKline LLC, priority 2007, dated 2013).

One series addresses T1, SCD (Rattus norvegicus, UniProt P07308).
T1 construct: SCD-containing rat microsomes (2 μg protein); from tissue
T1 sequence (P07308 1-358): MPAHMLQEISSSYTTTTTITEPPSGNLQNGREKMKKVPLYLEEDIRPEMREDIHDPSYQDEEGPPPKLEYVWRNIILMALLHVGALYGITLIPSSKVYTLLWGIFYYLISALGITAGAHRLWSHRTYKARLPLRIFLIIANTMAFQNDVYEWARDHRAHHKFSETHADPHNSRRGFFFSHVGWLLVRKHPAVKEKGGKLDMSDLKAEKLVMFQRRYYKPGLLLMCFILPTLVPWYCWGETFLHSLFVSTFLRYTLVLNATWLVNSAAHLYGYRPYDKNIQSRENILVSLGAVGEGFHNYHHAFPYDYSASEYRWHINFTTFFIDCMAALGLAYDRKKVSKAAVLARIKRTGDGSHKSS
Nature of the series: in vitro assay for SCD activity based on production of [3H]H2O. Conditions: SCD-containing rat microsomes (2 μg protein), [9,10-3H] stearoyl Coenzyme A 1 μM, 6 min incubation. The series is classed as biochemical. The procedure:
The compounds of the present invention may be analysed in vitro for SCD activity using an assay based on the production of [^3H]H2O, which is released during the enzyme-catalyzed generation of the monounsaturated fatty acyl CoA product. The assay is performed in a 96-well filtration plates. The titrated substrate used in the assay is the [9,10-^3H] stearoyl Coenzyme A. After incubation for 6 minutes of SCD-containing rat microsomes (2 μg protein) and substrate (1 μM), the labelled fatty acid acyl-CoA species and microsomes are absorbed with charcoal and separated from [^3H]H2O by centrifugation. The formation of [^3H]H2O is used as a measure of SCD activity. Compounds at concentrations starting at 10 μM to 0.1 nM or vehicle (DMSO) are preincubated for 5 minutes with the microsomes before addition of the substrate. The concentration-responses are fitted with sigmoidal curves to obtain IC50 values.

Structures are written as SMILES.

The IC50 is the concentration needed to halve the response being measured. Low values mean inhibition by little substance, high ones a need for much substance. In turn, `Cc1c(C(=O)Nc2ccc(OCCC(C)C)cc2)nnn1Cc1ccc(-c2ccccc2)cc1` [1-(4-Biphenylylmethyl)-5-methyl-N-{4-[(3-methylbutyl)oxy]phenyl}-1H-1,2,3-triazole-4-carboxamide] yielded an IC50 against SCD of more than 10 µM.
Turning to `CNC(=O)c1cccc(NC(=O)c2nnn(Cc3ccc(Cl)c(Cl)c3)c2C)c1C` [1-[(3,4-dichlorophenyl)methyl]-5-methyl-N-{2-methyl-3-[(methylamino)carbonyl]phenyl}-1H-1,2,3-triazole-4-carboxamide], the IC50 against SCD is more than 10 µM.
Same read-out and setting: as for `CNC(=O)c1cc(NC(=O)c2nnn(Cc3ccc(Cl)c(Cl)c3)c2C)cc(C(=O)NC)c1` [5-[({1-[(3,4-Dichlorophenyl)methyl]-5-methyl-1H-1,2,3-triazol-4-yl}carbonyl)amino]-N,N′-dimethyl-1,3-benzenedicarboxamide], the figure is more than 10 µM; as for `Cc1c(C(=O)Nc2cc(C(=O)O)cc(C(=O)O)c2)nnn1Cc1cccc(Cl)c1` [5-[({1-[(3-Chlorophenyl)methyl]-5-methyl-1H-1,2,3-triazol-4-yl}carbonyl)amino]-1,3-benzenedicarboxylic acid], more than 10 µM; as for `COC(=O)c1ccc(NC(=O)c2nnn(Cc3ccccc3)c2C)cc1C(=O)OC` [Dimethyl 4-({[5-methyl-1-(phenylmethyl)-lH-1,2,3-triazol-4-yl]carbonyl}amino)-1,2-benzenedicarboxylate], more than 10 µM.
On SCD, `COC(=O)c1cc(NC(=O)c2nnn(Cc3ccccc3)c2C)cc(C(=O)OC)c1` [Dimethyl 5-({[5-methyl-1-(phenylmethyl)-lH-1,2,3-triazol-4-yl]carbonyl}amino)-1,3-benzenedicarboxylate] displayed an IC50 of more than 10 µM.
Turning to `COC(=O)c1cc(NC(=O)c2nnn(Cc3ccc(Cl)c(Cl)c3)c2C)cc(C(=O)OC)c1` [Dimethyl 5-[({1-[(3,4-dichlorophenyl)methyl]-5-methyl-1H-1,2,3-triazol-4-yl}carbonyl)amino]-1,3-benzenedicarboxylate], at SCD, the IC50 was more than 10 µM.
`COC(=O)c1cc(NC(=O)c2nnn(Cc3cccc(Cl)c3)c2C)cc(C(=O)OC)c1` [Dimethyl 5-[({1-[(3-chlorophenyl)methyl]-5-methyl-1H-1,2,3-triazol-4-yl}carbonyl)amino]-1,3-benzenedicarboxylate] came in with a half-maximal inhibitory concentration (IC50) at SCD of more than 10 µM.
For `COC(=O)c1cc(NC(=O)c2nnn(Cc3ccc(F)cc3)c2C)cc(C(=O)OC)c1` [Dimethyl 5-[({1-[(4-fluorophenyl)methyl]-5-methyl-1H-1,2,3-triazol-4-yl}carbonyl)amino]-1,3-benzenedicarboxylate], the IC50 on SCD is more than 10 µM.
What is called melting point is the temperature of the solid-liquid transition. Compound `Cc1c(C(=O)Nc2cc(CO)cc(CO)c2)nnn1Cc1ccc(F)cc1` [Example 81, N-[3,5-bis(Hydroxymethyl)phenyl]-1-[(4-fluorophenyl)methyl]-5-methyl-1H-1,2,3-triazole-4-carboxamide] came in with a melting point of 180.3 °C.
On the same count and under the same terms, as for `Cc1c(C(=O)Nc2ccc(CO)c(CO)c2)nnn1Cc1cccc(Cl)c1` [Example 82, N-[3,4-bis(Hydroxymethyl)phenyl]-1-[(3-chlorophenyl)methyl]-5-methyl-1H-1,2,3-triazole-4-carboxamide], the figure is 157 °C; as for `Cc1c(C(=O)Nc2ccc(CO)c(CO)c2)nnn1Cc1ccc(F)cc1` [Example 83, N-[3,4-bis(Hydroxymethyl)phenyl]-1-[(4-fluorophenyl)methyl]-5-methyl-1H-1,2,3-triazole-4-carboxamide], 175.5 °C; as for `Cc1c(C(=O)Nc2cc(CO)cc(CO)c2)nnn1Cc1cccc(F)c1` [Example 84, N-[3,5-bis(Hydroxymethyl)phenyl]-1-[(3-fluorophenyl)methyl]-5-methyl-1H-1,2,3-triazole-4-carboxamide], 173.1 °C.
Regarding `Cc1c(C(=O)Nc2ccc(CO)c(CO)c2)nnn1Cc1cccc(F)c1` [Example 85, N-[3,4-bis(Hydroxymethyl)phenyl]-1-[(3-fluorophenyl)methyl]-5-methyl-1H-1,2,3-triazole-4-carboxamide], the melting point was determined as 157.2 °C.
Compound `Cc1c(C(=O)Nc2cccc(CO)c2)nnn1Cc1cccc(Cl)c1` [Example 86, 1-[(3-Chlorophenyl)methyl]-N-[3-(hydroxymethyl)phenyl]-5-methyl-1H-1,2,3-triazole-4-carboxamide] yielded a melting point of 151.9 °C.
Same read-out and setting: under `Cc1c(C(=O)Nc2cccc(CO)c2)nnn1Cc1ccc(F)cc1` [Example 87, 1-[(4-Fluorophenyl)methyl]-N-[3-(hydroxymethyl)phenyl]-5-methyl-1H-1,2,3-triazole-4-carboxamide] stands 142.1 °C.
On to `Cc1c(C(=O)Nc2ccc(CO)cc2)nnn1Cc1cccc(Cl)c1` [Example 88, 1-[(3-Chlorophenyl)methyl]-N-[4-(hydroxymethyl)phenyl]-5-methyl-1H-1,2,3-triazole-4-carboxamide], for which the melting point worked out at 136.2 °C.
The same measure, in the same setting: as for `Cc1c(C(=O)Nc2cccc(CO)c2)nnn1Cc1cccc(F)c1` [Example 89, 1-[(3-Fluorophenyl)methyl]-N-[3-(hydroxymethyl)phenyl]-5-methyl-1H-1,2,3-triazole-4-carboxamide], the figure is 124.7 °C.
For the compound `Cc1c(C(=O)Nc2ccc(CO)cc2)nnn1Cc1ccc(F)cc1` [Example 90, 1-[(4-Fluorophenyl)methyl]-N-[4-(hydroxymethyl)phenyl]-5-methyl-1H-1,2,3-triazole-4-carboxamide], the melting point was found to be 145.6 °C.
For `Cc1c(C(=O)Nc2ccc(CO)cc2)nnn1Cc1cccc(F)c1` [Example 91, 1-[(3-Fluorophenyl)methyl]-N-[4-(hydroxymethyl)phenyl]-5-methyl-1H-1,2,3-triazole-4-carboxamide], the melting point stood at 134.3 °C.
`CNC(=O)c1cc(CO)cc(NC(=O)c2nnn(Cc3ccc(Cl)c(Cl)c3)c2C)c1` [Example 92, 1-[(3,4-Dichlorophenyl)methyl]-N-{3-(hydroxymethyl)-5-[(methylamino)carbonyl]phenyl}-5-methyl-1H-1,2,3-triazole-4-carboxamide] showed a melting point of 223 to 225 °C.
`Cc1c(NC(=O)c2ccc(CO)cc2)nnn1Cc1ccc(Cl)c(Cl)c1` [Example 93, N-{1-[(3,4-Dichlorophenyl)methyl]-5-methyl-1H-1,2,3-triazol-4-yl}-4-(hydroxymethyl)benzamide] yielded a melting point of 160 °C.
`COC(=O)c1cccc(NC(=O)c2nnn(Cc3ccc(Cl)c(Cl)c3)c2C)c1C` [Methyl 3-[({1-[(3,4-dichlorophenyl)methyl]-5-methyl-1H-1,2,3-triazol-4-yl}carbonyl)amino]-2-methylbenzoate] showed an IC50 against SCD of more than 10 µM.
`COC(=O)c1cc(NC(=O)c2nnn(Cc3ccc(Cl)c(Cl)c3)c2C)ccc1OC` [Methyl 5-[({1-[(3,4-dichlorophenyl)methyl]-5-methyl-1H-1,2,3-triazol-4-yl}carbonyl)amino]-2-(methyloxy)benzoate] showed an IC50 on SCD of more than 10 µM.
The same measure, in the same setting: as for `COc1ccc(NC(=O)c2nnn(Cc3ccc(C(C)C)cc3)c2C)cc1OC` [N-[3,4-Bis(methyloxy)phenyl]-5-methyl-1-{[4-(1-methylethyl)phenyl]methyl}-1H-1,2,3-triazole-4-carboxamide], the figure is more than 10 µM.
